# Measurements as given in ChEMBL document CHEMBL4396865, “Current advances of triazole alcohols derived from fluconazole: Design, in vitro and in silico studies” (2019).
# What was measured:
# Format in all cases: functional
# Pichia kudriavzevii = assay: Antifungal activity against Candida krusei
# Cryptococcus neoformans [1] = assay: Antifungal activity against Cryptococcus neoformans; conditions: Cryptococcus neoformans
# Candida parapsilosis = assay: Antifungal activity against Candida parapsilosis; conditions: Lodderomyces parapsilosis
# Candida tropicalis [2] = assay: Antifungal activity against Candida tropicalis; conditions: Candida tropicalis
# Candida albicans [3] = assay: Antifungal activity against Candida albicans; conditions: Candida albicans
# Fonsecaea compacta [4] = assay: Antifungal activity against Fonsecaea compacta after 24 hrs by microbroth dilution method
# Aspergillus fumigatus [5] = assay: Potency index, ratio of fluconazole MIC to test compound MIC for Aspergillus fumigatus
# Trichophyton rubrum [6] = assay: Potency index, ratio of fluconazole MIC to test compound MIC for Trichophyton rubrum
# Fonsecaea compacta [7] = assay: Potency index, ratio of fluconazole MIC to test compound MIC for Fonsecaea compacta
# Aspergillus fumigatus [8] = assay: Antifungal activity against Aspergillus fumigatus after 24 hrs by microbroth dilution method
# Microsporum canis [9] = assay: Antifungal activity against Microsporum canis after 24 hrs by microbroth dilution method
# Candida tropicalis [10] = assay: Antifungal activity against Candida tropicalis after 24 hrs by microbroth dilution method
# Microsporum canis [11] = assay: Potency index, ratio of fluconazole MIC to test compound MIC for Microsporum canis
# Candida tropicalis [12] = assay: Potency index, ratio of fluconazole MIC to test compound MIC for Candida tropicalis
# Cryptococcus neoformans [13] = assay: Potency index, ratio of fluconazole MIC to test compound MIC for activity against Cryptococcus neoformans ATCC 32609
# Candida albicans [14] = assay: Potency index, ratio of fluconazole MIC to test compound MIC for Candida albicans ATCC 76615
# Trichophyton rubrum [15] = assay: Antifungal activity against Trichophyton rubrum after 24 hrs by microbroth dilution method
# Candida albicans [16] = assay: Antifungal activity against Candida albicans after 24 hrs by NCCLS protocol based method
# Cryptococcus neoformans [17] = assay: Antifungal activity against Cryptococcus neoformans after 72 hrs by NCCLS protocol based method
# Nannizzia gypsea = assay: Antifungal activity against Microsporum gypseum after 7 days by NCCLS protocol based method; conditions: 168 h
# Candida tropicalis [18] = assay: Antifungal activity against Candida tropicalis after 24 hrs by NCCLS protocol based method
# Trichophyton rubrum [19] = assay: Antifungal activity against Trichophyton rubrum after 7 days by NCCLS protocol based method; conditions: 168 h
# Aspergillus fumigatus [20] = assay: Antifungal activity against Aspergillus fumigatus; conditions: Aspergillus fumigatus; read-out: MIC
Compound,MIC80 (Pichia kudriavzevii),MIC80 (Cryptococcus neoformans [1]),MIC80 (Candida parapsilosis),MIC80 (Candida tropicalis [2]),MIC80 (Candida albicans [3]),MIC80 (Fonsecaea compacta [4]),MIC80 (Aspergillus fumigatus [8]),MIC80 (Microsporum canis [9]),MIC80 (Candida tropicalis [10]),MIC80 (Trichophyton rubrum [15]),Ratio (Aspergillus fumigatus [5]),Ratio (Trichophyton rubrum [6]),Ratio (Fonsecaea compacta [7]),Ratio (Microsporum canis [11]),Ratio (Candida tropicalis [12]),Ratio (Cryptococcus neoformans [13]),Ratio (Candida albicans [14]),further results
CN(CC(=O)Nc1ccc(Cl)c(Cl)c1)CC(O)(Cn1cncn1)c1ccc(F)cc1F (stereo not given),0.25 to 1 µg/mL,0.0156 µg/mL,0.25 to 1 µg/mL,0.25 to 1 µg/mL,0.0156 µg/mL,,,,,,,,,,,,,
CN(CC(=O)Nc1ccccc1)CC(O)(Cn1cncn1)c1ccc(F)cc1F (stereo not given),0.25 to 1 µg/mL,0.0156 µg/mL,0.25 to 1 µg/mL,0.25 to 1 µg/mL,0.0156 µg/mL,,,,,,,,,,,,,
Cc1cc(C)cc(NC(=O)CN(C)CC(O)(Cn2cncn2)c2ccc(F)cc2F)c1 (stereo not given),0.25 to 1 µg/mL,0.0156 µg/mL,0.25 to 1 µg/mL,0.25 to 1 µg/mL,0.0156 µg/mL,,,,,,,,,,,,,
Cc1ccc(NC(=O)CN(C)CC(O)(Cn2cncn2)c2ccc(F)cc2F)c(C)c1 (stereo not given),0.25 to 1 µg/mL,0.0156 µg/mL,0.25 to 1 µg/mL,0.25 to 1 µg/mL,0.0156 µg/mL,,,,,,,,,,,,,
COc1ccccc1NC(=O)CN(C)CC(O)(Cn1cncn1)c1ccc(F)cc1F (stereo not given),0.25 to 1 µg/mL,0.0156 µg/mL,0.25 to 1 µg/mL,0.25 to 1 µg/mL,0.0156 µg/mL,,,,,,,,,,,,,
CN(CC(=O)Nc1ccc(OC(F)(F)F)cc1)CC(O)(Cn1cncn1)c1ccc(F)cc1F (stereo not given),0.25 to 1 µg/mL,0.0156 µg/mL,0.25 to 1 µg/mL,0.25 to 1 µg/mL,0.0156 µg/mL,,,,,,,,,,,,,
CN(CCCOc1ccccc1[N+](=O)[O-])CC(O)(Cn1cncn1)c1ccc(F)cc1F (stereo not given),,,,,,,,,,,,,,,,,,MIC (Candida albicans [16]): 0.001 to 0.016 µg/mL; MIC (Cryptococcus neoformans [17]): 0.001 to 0.016 µg/mL; MIC (Nannizzia gypsea): 0.001 to 0.016 µg/mL; MIC (Candida tropicalis [18]): 0.001 to 0.016 µg/mL; MIC (Trichophyton rubrum [19]): 0.001 to 0.016 µg/mL
COc1cccc(NC(=O)CN(C)CC(O)(Cn2cncn2)c2ccc(F)cc2F)c1 (stereo not given),0.25 to 1 µg/mL,0.0156 µg/mL,0.25 to 1 µg/mL,0.25 to 1 µg/mL,0.0156 µg/mL,,,,,,,,,,,,,
Cc1ccc(NC(=O)CN(C)CC(O)(Cn2cncn2)c2ccc(F)cc2F)cc1C (stereo not given),0.25 to 1 µg/mL,0.0156 µg/mL,0.25 to 1 µg/mL,0.25 to 1 µg/mL,0.0156 µg/mL,,,,,,,,,,,,,
CCCCOc1ccccc1N1CCN(CCc2nnn(CC(O)(Cn3cncn3)c3ccc(F)cc3F)n2)CC1 (stereo not given),,,,,,,,,,,,,,,,,,MIC (Pichia kudriavzevii): 1 to 8 µg/mL; MIC (Cryptococcus neoformans [1]; read-out: MIC): 1 to 8 µg/mL; MIC (Candida tropicalis [2]; read-out: MIC): 1 to 8 µg/mL; MIC (Candida albicans [3]; read-out: MIC): 1 to 8 µg/mL; MIC (Aspergillus fumigatus [20]): 1 to 8 µg/mL
CN(CC(=O)Nc1cc(Cl)ccc1Cl)CC(O)(Cn1cncn1)c1ccc(F)cc1F (stereo not given),0.25 to 1 µg/mL,0.0156 µg/mL,0.25 to 1 µg/mL,0.25 to 1 µg/mL,0.0156 µg/mL,,,,,,,,,,,,,
CCC(C)n1ncn(-c2ccc(N3CCN(c4ccc(OCC5COC(Cn6cncn6)(c6ccc(Cl)cc6Cl)O5)cc4)CC3)cc2)c1=O (stereo not given) [ITRACONAZOLE],,,,,,,,,,,,,,,,,,MIC (Candida albicans [16]): 0.0625 µg/mL; MIC (Cryptococcus neoformans [17]): 0.0625 µg/mL; MIC (Nannizzia gypsea): 0.0625 µg/mL; MIC (Candida tropicalis [18]): 0.0625 µg/mL; MIC (Trichophyton rubrum [19]): 0.0625 µg/mL

# Second part, led by results:
MIC80 (Pichia kudriavzevii),MIC80 (Cryptococcus neoformans [1]),MIC80 (Candida parapsilosis),MIC80 (Candida tropicalis [2]),MIC80 (Candida albicans [3]),MIC80 (Fonsecaea compacta [4]),MIC80 (Aspergillus fumigatus [8]),MIC80 (Microsporum canis [9]),MIC80 (Candida tropicalis [10]),MIC80 (Trichophyton rubrum [15]),Compound,Ratio (Aspergillus fumigatus [5]),Ratio (Trichophyton rubrum [6]),Ratio (Fonsecaea compacta [7]),Ratio (Microsporum canis [11]),Ratio (Candida tropicalis [12]),Ratio (Cryptococcus neoformans [13]),Ratio (Candida albicans [14]),further results
0.25 to 1 µg/mL,0.0156 µg/mL,0.25 to 1 µg/mL,0.25 to 1 µg/mL,0.0156 µg/mL,,,,,,CN(CC(=O)Nc1ccc(Cl)cc1)CC(O)(Cn1cncn1)c1ccc(F)cc1F (stereo not given),,,,,,,,
,,,,,0.125 µg/mL,0.125 µg/mL,0.125 µg/mL,0.125 µg/mL,0.125 µg/mL,Cc1ccc(CN(CC(O)(Cn2cncn2)c2ccc(F)cc2F)C2CC2)cc1 (stereo not given),4,4,4,4,4,4,4,
,,,,,0.125 µg/mL,0.125 µg/mL,0.125 µg/mL,0.125 µg/mL,0.125 µg/mL,OC(CN(Cc1ccc(Br)cc1)C1CC1)(Cn1cncn1)c1ccc(F)cc1F (stereo not given),4,4,4,4,4,4,4,
0.25 to 1 µg/mL,0.0156 µg/mL,0.25 to 1 µg/mL,0.25 to 1 µg/mL,0.0156 µg/mL,,,,,,Cc1ccc(NC(=O)CN(C)CC(O)(Cn2cncn2)c2ccc(F)cc2F)cc1 (stereo not given),,,,,,,,
,,,,,0.125 µg/mL,0.125 µg/mL,0.125 µg/mL,0.125 µg/mL,0.125 µg/mL,Cc1ccccc1CN(CC(O)(Cn1cncn1)c1ccc(F)cc1F)C1CC1 (stereo not given),4,4,4,4,4,4,4,
,,,,,0.125 µg/mL,0.125 µg/mL,0.125 µg/mL,0.125 µg/mL,0.125 µg/mL,CC(C)(C)c1ccc(CN(CC(O)(Cn2cncn2)c2ccc(F)cc2F)C2CC2)cc1 (stereo not given),4,4,4,4,4,4,4,
,,,,,0.125 µg/mL,0.125 µg/mL,0.125 µg/mL,0.125 µg/mL,0.125 µg/mL,OC(CN(Cc1ccc(Cl)cc1)C1CC1)(Cn1cncn1)c1ccc(F)cc1F (stereo not given),4,4,4,4,4,4,4,
,,,,,0.125 µg/mL,0.125 µg/mL,0.125 µg/mL,0.125 µg/mL,0.125 µg/mL,OC(CN(Cc1ccccc1F)C1CC1)(Cn1cncn1)c1ccc(F)cc1F (stereo not given),4,4,4,4,4,4,4,
0.25 to 1 µg/mL,0.0156 µg/mL,0.25 to 1 µg/mL,0.25 to 1 µg/mL,0.0156 µg/mL,,,,,,CN(CC(=O)Nc1ccc(C(C)(C)C)cc1)CC(O)(Cn1cncn1)c1ccc(F)cc1F (stereo not given),,,,,,,,
,,,,,0.125 µg/mL,0.125 µg/mL,0.125 µg/mL,0.125 µg/mL,0.125 µg/mL,OC(CN(Cc1ccccc1)C1CC1)(Cn1cncn1)c1ccc(F)cc1F (stereo not given),4,4,4,4,4,4,4,
,,,,,0.125 µg/mL,0.125 µg/mL,0.125 µg/mL,0.125 µg/mL,0.125 µg/mL,OC(CN(Cc1ccccc1Cl)C1CC1)(Cn1cncn1)c1ccc(F)cc1F (stereo not given),4,4,4,4,4,4,4,
,,,,,0.125 µg/mL,0.125 µg/mL,0.125 µg/mL,0.125 µg/mL,0.125 µg/mL,OC(CN(Cc1ccccc1Br)C1CC1)(Cn1cncn1)c1ccc(F)cc1F (stereo not given),4,4,4,4,4,4,4,
0.25 to 1 µg/mL,0.0156 µg/mL,0.25 to 1 µg/mL,0.25 to 1 µg/mL,0.0156 µg/mL,,,,,,CN(CC(=O)Nc1ccc(F)cc1)CC(O)(Cn1cncn1)c1ccc(F)cc1F (stereo not given),,,,,,,,
0.25 to 1 µg/mL,0.0156 µg/mL,0.25 to 1 µg/mL,0.25 to 1 µg/mL,0.0156 µg/mL,,,,,,CN(CC(=O)Nc1ccc(Br)cc1)CC(O)(Cn1cncn1)c1ccc(F)cc1F (stereo not given),,,,,,,,
,,,,,0.125 µg/mL,0.125 µg/mL,0.125 µg/mL,0.125 µg/mL,0.125 µg/mL,OC(CN(Cc1ccc(F)cc1)C1CC1)(Cn1cncn1)c1ccc(F)cc1F (stereo not given),4,4,4,4,4,4,4,
